{"source": "patent US7608585B2", "about": "“Compositions for inhibition of necrosis induced by a neurotrophin” (Neurotech Pharmaceuticals Co., Ltd., priority 2004, dated 2009)", "key": {"[1]": {"system": "free radical neurotoxicity", "conditions": "as anti-oxidants; cited from earlier work"}, "[2]": {"system": "Mixed cortical cell cultures", "type": "cell-based, Rat", "protocol": "Rat cortical cell cultures were prepared from the 17-day-old fetal brain and the neocortices were mechanically triturated as previously described (Noh and Gwag, 1997). Dissociated cells were plated on 6-well plates and 24-well plates (approximately 3 cortices per plate), or on glass bottom 35 mm dishes for ROS imaging. Plating media consist of Eagle's minimal essential media (MEM, Earle's salts, supplied glutamine-free) supplemented with 5% horse serum, 5% fetal bovine serum, 21 mM glucose, 26.5 mM bicarbonate and 2 mM L-glutamine.\n(§1) For neuron-glia mixed cultures, 10 μM cytosine arabinoside (Ara C) was included to stop the overgrowth of non-neuronal cells to cultures at DIV 5-7 when glial cells were confluent underneath neurons. After 2 days, cultures were then fed with plating medium lacking fetal serum twice a week. Cultures were maintained at 37° C. in a humidified 5% CO2 incubator. For neuron-rich cultures (>95%), 2.5 μM Ara C was included to cultures at 2-3 days in vitro (DIV 2-3) as previously described (Gwag et al., 1997).\nTo examine if neurotrophins would induce neuronal necrosis, BDNF-induced neuronal death was analyzed by measuring the level of lactate dehydrogenase (LDH) released into the bathing medium.\n(§2) Mixed cortical cell cultures (DIV 12-14) were rinsed in serum free MS (MEM supplemented with 26.5 mM sodium bicarbonate and 21 mM glucose) and then exposed to various concentrations of NGF, BDNF or NT-3 in serum free MS. Neuronal cell death was analyzed by measuring the level of lactate dehydrogenase (LDH) released into the bathing medium. The percent neuronal death was normalized to the mean LDH value released after a sham control (defined as 0%) or continuous exposure to 500 μM NMDA for 24 hr (defined as 100%) The latter produces complete neuronal death within 24 hr. For experiments for serum deprivation, neuron-rich cortical cell cultures (DIV 7) were placed into serum free MS containing 1 μM MK-801 as described (Gwag et al., 1995). Neuronal death was analyzed 24 and 48 hr later by counting viable neurons excluding Trypan Blue satained.\nNeuronal cell death was assessed by measurement of LDH efflux to the bathing medium, mean±SEM (n=16 culture wells per condition). *, Significant difference from the relevant control (sham washed control), at P<0.05 using analysis of variance and Student-Newman-Keuls test."}, "ROS in cortical neurons": {"system": "ROS in cortical neurons", "assay": "ROS imaging by oxidized DCDHF-DA (DCF) and hydroethidine fluorescence", "type": "cell-based, Rat", "conditions": "for BDNF-induced production of [ROS]i: concurrent addition with 100 ng/ml BDNF, 32 hr", "protocol": "Cortical cell cultures (DIV 12-15) grown on glass bottom dishes were loaded with 10 μM dichlorodihydro fluorescein diacetate (DCDHF-DA) or 5 μM hydroethidium (Molecular Probes, Eugene, Oreg.) plus 2% Pluronic F-127 in HEPES-buffered control salt solution (HCSS) buffer containing (in mM): 120 NaCl, 5 KCl, 1.6 MgCl2, 2.3 CaCl2, 15 glucose, 20 HEPES, and 10 NaOH. Cultures were incubated for 20 min at 37° C., and washed three times with HCSS buffer. […] The fluorescence images were analyzed using a QuantiCell 700 system (Applied imaging, UK).\nSuperoxide production through activation of NADPH oxidase was analyzed by measuring the oxidation of HEt and DCDHF to ethidium and DCF, respectively, in cortical neurons after exposure to a sham operation, 100 ng/ml BDNF, or 100 ng/ml BDNF plus 3 nM DPI for 32 hr (FIG. 15)."}, "[3]": {"system": "BDNF-induced neuronal death in cortical cell cultures", "assay": "Protection against BDNF-induced neuronal death, LDH efflux", "type": "cell-based, Rat", "conditions": "for Swelling of neuronal cell body and neuronal death: 36 hr after exposure to BDNF, 3-10 nM DPI, 10-30 μM AEBSF; for BDNF neurotoxicity / BDNF-induced neuronal cell necrosis (LDH efflux): 100 ng/ml BDNF, 36 hr, 100 μg/ml anti-BDNF antibody, 100 μM trolox, 1 μg/ml cycloheximide", "protocol": "Cortical cell cultures (DIV 12-15) were exposed to 100 ng/ml BDNF, alone or in the presence NADPH oxidase inhibitors, 3-10 nM DPI, 10-30 μM 4-(2-amonoethyl)-benzensulfonyl fluoride (AEBSF), or 1 μM 2-Hydroxy-TTBA ((2-Hydroxy-5-(2,3,5,6-tetrafluoro-4-trifluoromethyl-benzylamino)-benzoic acid). Neuronal death was analyzed 36 hr later by measurement of LDH efflux into the bathing medium."}, "[4]": {"system": "Neuron-rich cortical cell cultures", "assay": "Serum deprivation-induced neuronal apoptosis, counting viable neurons", "type": "cell-based, Rat", "conditions": "for Anti-apoptotic action of BDNF on inclusion of the substance: 100 ng/ml BDNF plus 3 nM DPI or 100 μM trolox; for Serum deprivation-induced neuronal apoptosis: alone, without BDNF; for Serum deprivation-induced neuronal apoptosis / Delayed neuronal death evolving in the presence of BDNF: 3 nM DPI, 100 μM trolox; for Delayed neuronal death evolving in the presence of BDNF: concurrent addition, 48 hr", "protocol": "as §1, §2\nNeuron-rich cortical cell cultures (DIV 7) were deprived of serum, alone (serum deprivation) or in the presence of 100 ng/ml BDNF, 100 ng/ml BDNF plus 3 nM DPI, 3 nM DPI, 100 ng/ml BDNF plus 100 μM trolox, or 100 μM trolox. Neuronal death was assessed 24 hr and 48 hr later by counting viable neurons."}, "cortical neurons": {"system": "cortical neurons", "type": "cell-based", "protocol": "To examine the patterns of BDNF-induced neuronal death, we observed neurons from 32 hrs after a sham wash or continuous exposure to 100 ng/ml BDNF under phase contrast or transmission electron microscope.\nCultures were fixed in Karnovskys fixative solution (1% paraformaldehyde, 2% glutaraldehyde, 2 mM calcium cholride, 100 mM cacodylate buffer, pH 7.4) for 2 hr, washed with cacodylate buffer, and post-fixed in 1% osmium tetroxide and 1.5% potassium ferrocyanide for 1 hr. Cells were then stained en bloc in 0.5% uranyl acetate, dehydrated through graded ethanol series, and embedded in Poly/Bed 812 resin (Pelco, Calif.). Cells were sectioned using Reichert Jung Ultracut S (Leica, Cambridge, UK). After staining cells with uranyl acetate and lead citrate, cells were observed and photographed under Zeiss EM 902A."}, "[5]": {"conditions": "36 hr after 100 ng/ml BDNF, 3 nM DPI, 10 μM AEBSF, 1 μM 2-Hydroxy-TTBA"}}, "note": "Like-named read-outs stand apart in the source and are kept apart here."}
{"molecule": "O=C(O)c1cc(NCc2ccc(F)cc2)ccc1O", "note": "[FBAS, 5-(4-fluorobenxyl) aminosalicylic acid]", "values": [{"measurement": "Free radical neurotoxicity", "setting": "[1]", "value": "block free radical neurotoxicity"}]}
{"molecule": "NT-3: neurotrophin-3, a neurotrophin", "values": [{"measurement": "Cell necrosis induced by neurotrophin", "setting": "[2]", "value": "derives cell necrosis"}, {"measurement": "Neuronal death (LDH efflux to the bathing medium)", "setting": "[2]", "value": "Near complete neuronal death"}]}
{"molecule": "c1ccc2c(c1)[I+]c1ccccc1-2", "note": "[DPI, diphenylene iodonium]", "values": [{"measurement": "BDNF-induced superoxide production (oxidation of HEt and DCDHF)", "setting": "ROS in cortical neurons", "value": "completely blocked"}, {"measurement": "Neuronal necrosis (LDH efflux)", "setting": "[3]", "value": "significantly reduced"}, {"measurement": "Swelling of neuronal cell body and neuronal death", "setting": "[3]", "value": "significantly reduced"}, {"measurement": "Anti-apoptotic action of BDNF on inclusion of the substance", "setting": "[4]", "value": "insensitive"}, {"measurement": "Serum deprivation-induced neuronal apoptosis", "setting": "[4]", "value": "Neither DPI nor trolox alone reduced"}, {"measurement": "Delayed neuronal death evolving in the presence of BDNF", "setting": "[4]", "value": "attenuated"}]}
{"molecule": "NCCc1ccc(S(=O)(=O)F)cc1", "note": "[AEBSF, 4-(2-amonoethyl)-benzensulfonyl fluoride]", "values": [{"measurement": "Neuronal necrosis (LDH efflux)", "setting": "[3]; [5]", "value": "significantly reduced"}, {"measurement": "Swelling of neuronal cell body and neuronal death", "setting": "[3]", "value": "significantly reduced"}]}
{"molecule": "COc1ccc(CNc2ccc(O)c(C(=O)O)c2)cc1", "note": "[MBAS]", "values": [{"measurement": "Free radical neurotoxicity", "setting": "[1]", "value": "block free radical neurotoxicity"}]}
{"molecule": "O=C(O)c1cc(NCc2c(F)c(F)c(C(F)(F)F)c(F)c2F)ccc1O", "note": "[2-Hydroxy-TTBA, 2-Hydroxy-5-(2,3,5,6-tetrafluoro-4trifluoromethyl-benzylamino)-benzoic acid]", "values": [{"measurement": "Neuronal necrosis (LDH efflux)", "setting": "[3]; [5]", "value": "significantly reduced"}, {"measurement": "Free radical neurotoxicity", "setting": "[1]", "value": "block free radical neurotoxicity"}]}
{"molecule": "Cc1c(C)c2c(c(C)c1O)CCC(C)(C(=O)O)O2", "note": "(stereo not shown) [trolox]", "values": [{"measurement": "BDNF-induced production of [ROS]i", "setting": "ROS in cortical neurons", "value": "prevented"}, {"measurement": "BDNF neurotoxicity / BDNF-induced neuronal cell necrosis (LDH efflux)", "setting": "[3]", "value": "blocked"}, {"measurement": "Anti-apoptotic action of BDNF on inclusion of the substance", "setting": "[4]", "value": "insensitive"}, {"measurement": "Serum deprivation-induced neuronal apoptosis", "setting": "[4]", "value": "Neither DPI nor trolox alone reduced"}, {"measurement": "Delayed neuronal death evolving in the presence of BDNF", "setting": "[4]", "value": "attenuated"}]}
{"molecule": "C[C@@H]1C[C@@H]([C@H](O)CC2CC(=O)NC(=O)C2)C(=O)[C@@H](C)C1", "note": "[cycloheximide, reference compound]", "values": [{"measurement": "BDNF-induced production of [ROS]i", "setting": "ROS in cortical neurons", "value": "prevented"}, {"measurement": "BDNF neurotoxicity / BDNF-induced neuronal cell necrosis (LDH efflux)", "setting": "[3]", "value": "blocked"}]}
{"molecule": "NT-4/5: a neurotrophin (protein, UniProt P34130 81-210, looked up) Neurotrophin-4: GVSETAPASRRGELAVCDAVSGWVTDRRTAVDLRGREVEVLGEVPAAGGSPLRQYFFETRCKADNAEEGGPGAGGGGCRGVDRRHWVSECKAKQSYVRALTADAQGRVGWRWIRIDTACVCTLLSRTGRA", "values": [{"measurement": "Cell necrosis induced by neurotrophin", "setting": "[2]", "value": "derives cell necrosis"}]}
{"molecule": "BDNF: brain-derived neurotrophic factor, a neurotrophin (protein, UniProt P23560 19-247, looked up) Neurotrophic factor BDNF …: APMKEANIRGQGGLAYPGVRTHGTLESVNGPKAGSRGLTSLADTFEHVIEELLDEDQKVRPNEENNKDADLYTSRVMLSSQVPLEPPLLFLLEEYKNYLDAANMSMRVRRHSDPARRGELSVCDSISEWVTAADKKTAVDMSGGTVTVLEKVPVSKGQLKQYFYETKCNPMGYTKEGCRGIDKRHWNSQCRTTQSYVRALTMDSKKRIGWRFIRIDTSCVCTLTIKRGR", "values": [{"measurement": "Cell necrosis induced by neurotrophin", "setting": "[2]", "value": "derives cell necrosis"}, {"measurement": "Neuronal death (LDH efflux to the bathing medium)", "setting": "[2]", "value": "Near complete neuronal death"}, {"measurement": "Pattern of neuronal death under transmission electron microscope", "setting": "cortical neurons", "value": "induced neuronal necrosis"}]}
